One assay concerns NSC-34 cells. The assay can be described thus: Cell death, PI staining and flow cytometry, NSC-34. In kind it is cell-based, mouse. The settings on record: 5 h, serum-free medium, 37°C. As for the experimental part: (§1) NSC-34 cells, a mouse motor neuron-like hybrid cell line, the A549 human lung adenocarcinoma and U-87MG human glioblastoma cell lines were incubated with the (1-26)N-Ter-Antp, D-(15-26)N-Ter-Antp, (1-20)N-Ter-Antp, (5-20)N-Ter-Antp, or (10-20)N-Ter-Antp peptides in the appropriate serum-free growth medium for 5 h at 37°C. Cells were harvested, and analyzed for cell death using propidium iodide (PI) staining and flow cytometry. For XTT, the CellTiter 96 AQueous one-solution cell proliferation assay was used to follow cell viability as described previously ([Leyton-Jaimes et al., 2016]).
(§2) NSC-34 (A), U-87MG (B), or A549 (C) cells were incubated with the indicated concentrations of (1-26)N-Ter-Antp (∙), D-(15-26) (19-26)N-Ter-Antp (▲), (1-20)N-Ter-Antp (∘), (5-20)N-Ter-Antp (□) or (10-20)N-Ter-Antp (◆) peptide for 5 h. Cell death was analyzed using PI staining and flow cytometry. […] Cell viability analysis was performed with the CellTiter 96 AQueous one-solution cell proliferation assay with ELISA at 490 nm. […] The significance of quantitative analysis of triplicates of different biological repeats (n = 3) was performed by Student’s t-test; ^∗∗P < 0.01. […] Twenty-four hours post-transfection, the cells were incubated for 5 h with (10-20)N-Ter-Antp peptide (20 μM) and then analyzed for apoptosis using acridine orange and ethidium bromide staining, as described previously ([McGahon et al., 1995]). Fluorescence microscopy images were analyzed and about 100 to 300 cells were counted for each treatment in representative microscopic fields. The significance of quantitative analysis of triplicates of different biological repeats (n = 3) was performed by one-way Anova; ^∗∗P < 0.01.

In the next assay the test system is U-87MG cells. The assay is described as follows: Cell death, PI staining and flow cytometry, U-87MG. Format: cell-based, human. The settings on record: 5 h, serum-free medium, 37°C. As for the experimental part: as §1, §2
Another assay has as its system A549 cells. The assay is described as follows: Cell death, PI staining and flow cytometry, A549. In kind it is cell-based, human. The settings on record: 5 h, serum-free medium, 37°C. As for the experimental part:
as §1, §2

Assay [1] relates to NSC-34 cells transfected to express human mutant SOD1^G93A. The assay can be described thus: Rescue of mutant SOD1^G93A toxicity, cell viability (XTT / CellTiter 96 AQueous). Format: cell-based, mouse. The settings on record: NSC-34 cells expressing SOD1^G93A, increasing peptide concentrations, 5 h, XTT assay; n = 3. How it is done: as §1, §2
Cell viability was quantified using the XTT assay and apoptosis using acridine orange and ethidium bromide staining. […] Importantly, this effect was observed using the three non-cell death-inducing VDAC1-derived N-terminal peptides, i.e., the (1-20)-N-Ter-Antp, (5-20)-N-Ter-Antp and (10-20)-N-Ter-Antp peptides.

Assay [2] concerns SOD1^G93A-expressing mESC-derived MNs. The assay can be described thus: Neurite outgrowth of mESC-derived motor neurons. The settings on record: 10 μM, first 24 h; mean ± SEM n = 3, P < 0.05. Format: cell-based, mouse. As for the experimental part: (§3) This cell line carries green fluorescent protein (GFP) under the control of the promoter for the motor neuron (MN)-specific transcription factor HB9 (HB9:GFP cells) ([Di Giorgio et al., 2007]). We used the SOD1^G93A mESC line to derive GFP^+ MNs.
(§4) Motor neuron differentiation was induced as described previously with some modifications ([Wichterle et al., 2002]). Cells were cultured in ADFNB medium composed of advanced D-MEM/F12:Neurobasal (1:1), 0.1 mM 2-mercaptoethanol, and GlutaMAX supplement, B27 supplement, and N2 supplement all from Invitrogen, to form embryoid bodies (EBs), and supplemented with 0.1 μM of retinoic acid (RA, Sigma), as well as 0.5 μM of sonic hedgehog (Shh) agonist Ag1.3 (Curis) every second day.
For an in vitro differentiation assay, EBs were enzymatically dissociated after 7 days in culture with TrypLE Express (Gibco) and seeded on 0.01% poly-l-ornithine (Sigma) pre-coated coverslips followed by laminin (10 μg/ml, Sigma). […]
SOD1^G93A-expressing mESC-derived MNs were incubated with the indicated concentrations of (1-20)N-Ter-Antp peptide for 1–4 days following initiation of final differentiation. […] GFP fluorescence indicates the expression of the motor neuron-specific transcription factor HB9. […] (E) Quantification of MNs survival. For all assays, results are expressed as the mean ± SEM (n = 3). ^*P < 0.05.

For assay [3] the test system is unchanged. The assay is described as follows: Survival of mESC-derived motor neurons. In kind it is cell-based, mouse. How it is done:
as §3, §4
For an in vitro differentiation assay, EBs were enzymatically dissociated after 7 days in culture with TrypLE Express (Gibco) and seeded on 0.01% poly-l-ornithine (Sigma) pre-coated coverslips followed by laminin (10 μg/ml, Sigma). Cells (5 × 10^4) were seeded on coverslip in 24-well plates with ADFNB cell medium supplemented with of Ciliary neurotrophic factor (10 ng/ml, CNTF) and Glial cell-derived neurotrophic factor (GDNF; Miltenyi Biotec). During plating, 1-20N-Ter-Antp VDAC1-peptide was added to the cultures. Half of the medium was replaced with fresh medium every second day and at the indicated time points. The cultures were fixed in 4% paraformaldehyde in PBS.
Stereological estimation of neurite lengths to evaluate neurite outgrowth in cultured cells was carried out as described previously ([Ronn et al., 2000]). The total neuritic length per cell was estimated by counting the number of GFP^+ soma and neurite intersections with test lines of an unbiased counting frame superimposed on images of cell cultures obtained using a 20× objective (NA 0.75) of a Nikon Eclipse E800 epifluorescence microscope equipped with a Nikon DXM1200F CCD camera. The absolute length, L, of neurites per cell was subsequently estimated from the number of neurite intersections, I, per cell by means of the equation L = (πd/2)I describing the relationship between the number of neurite intersections and the vertical distance, d, between the test lines used.
SOD1^G93A-expressing mESC-derived MNs were incubated with the indicated concentrations of (1-20)N-Ter-Antp peptide for 1–4 days following initiation of final differentiation. […] Scale bar, 100 μm. […] GFP fluorescence indicates the expression of the motor neuron-specific transcription factor HB9. Gross cellular morphology of surviving MNs remained unaffected by the (1-20)N-Ter-Antp peptide. Scale bar, 25 μm. (E) Quantification of MNs survival. For all assays, results are expressed as the mean ± SEM (n = 3). ^*P < 0.05.

“1-MAVPPTYADLGKSARDVFTK-20-RQIKIWFQNRRMKWKK [(1-20)-N-Ter-Antp, like (1-26)-N-Ter-Antp but shortened by six amino acids at the C-terminus]”: in the assay on NSC-34 cells, the “Cell death induction in NSC-34 cells” value is reported as “could not induce cell death”. In addition, the “Cell death induction in U-87MG cells” value in the assay with U-87MG cells is given as “could not induce cell death”. Further, the “Cell death induction in A549 cells” value in the assay with A549 cells was “could not induce cell death”. In assay [1], the “Effect on SOD1^G93A toxicity (cell viability)” value is given as “reduced the toxic effect of SOD1^G93A in a concentration-dependent manner”. Also, the MN neurite outgrowth entry in assay [2] is listed as “significantly increased MN neurite outgrowth”. Besides, the “improvement of survival of SOD1^G93A-expressing MNs (fold)” value in assay [3] (10 μM, 96 h) is “twofold”. The “number of surviving MNs over the course of final differentiation” value in assay [3] (10 μM, 96 h, n = 3, P < 0.05) is “significantly increased the number of surviving MNs”. In assay [3] (5 and 10 μM, 24 h after initiation of differentiation, n = 3, P < 0.05), the “number of MNs present in the culture” value is listed as “significantly increased the number of MNs present in the culture”. Also, in assay [3] (SOD1^G93A-expressing mESC-derived MNs), the “optimal peptide concentration for neurite outgrowth and survival” value stood at 10 µM.

The record behind these values is publication PMC6702328, “A VDAC1-Derived N-Terminal Peptide Inhibits Mutant SOD1-VDAC1 Interactions and Toxicity in the SOD1 Model of ALS” (Frontiers in Cellular Neuroscience, 2019).
